Results on eight sequences are retold here after PMC4057605 (Journal of immunology (Baltimore, Md. : 1950), 2013).

The test system of assay [1] is HLA-B*44:02 monochain. Further details: species or system mouse (HLA-B*44:02 monochain transgenic, H-2 class I null). The following applies: mouse, in vivo.
Assay [2] relates to HLA-B*44:02 monochain. Further details: species or system mouse (HLA-B*44:02 monochain transgenic, H-2 class I null). The note with it: mouse, in vivo, sc.
Assay [3] concerns HLA-A*01:03 monochain. The note with it: mouse, in vivo, sc.
Assay [4] has as its system HLA-A*01:03 monochain. The following applies: mouse, in vivo.
The test system of assay [5] is HLA-B*08:01 monochain. More on the design: species or system mouse (HLA-B*08:01 monochain transgenic, H-2 class I null). The note with it: mouse, in vivo, sc.
Assay [6] concerns HLA-B*08:01 monochain. Further details: species or system mouse (HLA-B*08:01 monochain transgenic, H-2 class I null). The note with it: mouse, in vivo.
Assay [7] has as its system HLA-B*27:05 monochain. More on the design: species or system mouse (HLA-B*27:05 monochain transgenic, H-2 class I null). The note with it: mouse, in vivo.
Assay [8] concerns HLA-B*27:05 monochain. More on the design: species or system mouse (HLA-B*27:05 monochain transgenic, H-2 class I null). The following applies: mouse, in vivo, sc.

Regarding FEDLRVLSF, the “CD8+ T cell IFN-γ responses after DNA immunization” value in the assay with HLA-B*44:02 monochain [1] is reported as 66/44/0/0 Spots/10^6 Cells. Moreover, the “CD8+ T cell IFN-γ responses after peptide immunization” value in the assay on HLA-B*44:02 monochain [2] is reported as 167/61/30/17/8 Spots/10^6 Cells.

On to VSDGGPNLY, for which, in the assay with HLA-A*01:03 monochain [3], the “CD8+ T cell IFN-γ responses after peptide immunization” value is 201/134/71/59 Spots/10^6 Cells. Also, the “CD8+ T cell IFN-γ responses after DNA immunization” value in the assay on HLA-A*01:03 monochain [4] is 265/169/105 Spots/10^6 Cells.

EADPTGHSY: the “CD8+ T cell IFN-γ responses after peptide immunization” value in the assay on HLA-A*01:03 monochain [3] is reported as 287/212/123/27 Spots/10^6 Cells. For the same sequence, the “CD8+ T cell IFN-γ responses after DNA immunization” value with HLA-A*01:03 monochain [4] is 118/91/86/38 Spots/10^6 Cells.

As for WLKIKRDYL, in the assay with HLA-B*08:01 monochain [5], the “CD8+ T cell IFN-γ responses after peptide immunization” value is given as 524/103/97/74/64/0 Spots/10^6 Cells. Also, the “CD8+ T cell IFN-γ responses after DNA immunization” value in the assay on HLA-B*08:01 monochain [6] is listed as 327/46/39/21/21/11 Spots/10^6 Cells.

As for SRYWAIRTR, in the assay on HLA-B*27:05 monochain [7], the “CD8+ T cell IFN-γ responses after DNA immunization” value is 917/890/411/241 Spots/10^6 Cells. Further, in the assay with HLA-B*27:05 monochain [8], the “CD8+ T cell IFN-γ responses after peptide immunization” value was 567/459/110/0 Spots/10^6 Cells.

As for LRGKWQRRYR, the “CD8+ T cell IFN-γ responses after DNA immunization” value in the assay with HLA-B*27:05 monochain [7] was 221/213/189/13 Spots/10^6 Cells. Besides, the “CD8+ T cell IFN-γ responses after peptide immunization” value with HLA-B*27:05 monochain [8] was 113/61/54/23 Spots/10^6 Cells.

AENGWGFYF: the “CD8+ T cell IFN-γ responses after DNA immunization” value with HLA-B*44:02 monochain [1] is 91/63/46/0 Spots/10^6 Cells. Further, the “CD8+ T cell IFN-γ responses after peptide immunization” value with HLA-B*44:02 monochain [2] is given as 60/41/29/12/9 Spots/10^6 Cells.

Consider EENLLDFVRF, for which the “CD8+ T cell IFN-γ responses after DNA immunization” value in the assay on HLA-B*44:02 monochain [1] is recorded as 134/87/0/0 Spots/10^6 Cells. In addition, the “CD8+ T cell IFN-γ responses after peptide immunization” value in the assay on HLA-B*44:02 monochain [2] is recorded as 54/28/27/20/0 Spots/10^6 Cells.
